According to ChEMBL document CHEMBL5360660, “Cyclin-Dependent Kinase Degradation via E3 Ligase Binding for Potential Disease Modulation in Cancer Treatment” (ACS Med Chem Lett, 2023):

Tests used:
[1] = target: Protein cereblon/Cyclin-dependent kinase 5 (Homo sapiens, UniProt Q00535+Q96SW2); assay: PROTAC activity at CRBN/CDK5 in HEK293 cells assessed as induction of CDK5 degradation incubated for 24 hrs by Western blotting analysis; format: cell-based
[2] = target: Protein cereblon/Cyclin-dependent kinase 2 (Homo sapiens, UniProt P24941+Q96SW2); assay: PROTAC activity at CRBN/CDK2 in HEK293 cells assessed as induction of CDK2 degradation incubated for 24 hrs by Western blotting analysis; format: cell-based
[3] = target: Protein cereblon/Cyclin-dependent kinase 9 (Homo sapiens, UniProt P50750+Q96SW2); assay: PROTAC activity at CRBN/CDK9 in HEK293 cells assessed as induction of CDK9 degradation incubated for 24 hrs by Western blotting analysis; format: cell-based
[4] = target: Cyclin-dependent kinase 5 (Homo sapiens, UniProt Q00535); assay: Binding affinity to CDK5 (unknown origin) assessed as dissociation constant
[5] = target: Cyclin-dependent kinase 9 (Homo sapiens, UniProt P50750); assay: Binding affinity to CDK9 (unknown origin) assessed as dissociation constant
Cyclin-dependent kinase 9, sequence (P50750 whole entry): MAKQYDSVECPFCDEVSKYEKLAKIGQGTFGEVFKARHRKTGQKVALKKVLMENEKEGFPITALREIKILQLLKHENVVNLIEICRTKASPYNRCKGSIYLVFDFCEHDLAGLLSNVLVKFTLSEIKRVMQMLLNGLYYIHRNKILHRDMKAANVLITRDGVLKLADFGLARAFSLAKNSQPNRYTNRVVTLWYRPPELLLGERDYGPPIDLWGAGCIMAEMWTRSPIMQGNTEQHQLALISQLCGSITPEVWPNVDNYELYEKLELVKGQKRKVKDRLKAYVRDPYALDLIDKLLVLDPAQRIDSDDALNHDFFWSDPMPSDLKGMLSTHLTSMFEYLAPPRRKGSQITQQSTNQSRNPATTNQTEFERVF

Protein cereblon/Cyclin-dependent kinase 5, sequence (Q00535 whole entry): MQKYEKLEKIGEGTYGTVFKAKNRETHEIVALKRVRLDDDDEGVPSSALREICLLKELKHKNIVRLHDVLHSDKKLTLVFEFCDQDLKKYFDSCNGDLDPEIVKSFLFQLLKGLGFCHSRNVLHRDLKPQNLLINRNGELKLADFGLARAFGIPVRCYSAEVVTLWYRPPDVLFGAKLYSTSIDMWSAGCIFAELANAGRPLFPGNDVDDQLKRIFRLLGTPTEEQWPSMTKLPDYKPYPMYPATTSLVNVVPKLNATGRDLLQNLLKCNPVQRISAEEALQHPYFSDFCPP
Protein cereblon/Cyclin-dependent kinase 5, sequence (Q96SW2 whole entry): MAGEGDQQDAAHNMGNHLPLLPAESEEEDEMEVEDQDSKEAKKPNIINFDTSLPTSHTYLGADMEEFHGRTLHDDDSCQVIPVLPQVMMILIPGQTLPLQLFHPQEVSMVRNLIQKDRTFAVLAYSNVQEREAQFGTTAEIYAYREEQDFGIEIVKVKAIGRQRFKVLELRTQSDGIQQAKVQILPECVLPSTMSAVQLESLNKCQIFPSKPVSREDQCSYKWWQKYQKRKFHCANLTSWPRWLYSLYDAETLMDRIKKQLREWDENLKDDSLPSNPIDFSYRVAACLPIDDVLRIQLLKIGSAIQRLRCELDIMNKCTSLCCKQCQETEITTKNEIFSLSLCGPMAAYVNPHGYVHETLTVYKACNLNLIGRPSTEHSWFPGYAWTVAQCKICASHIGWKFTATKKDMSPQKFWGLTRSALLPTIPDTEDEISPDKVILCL
Protein cereblon/Cyclin-dependent kinase 9, sequence (P50750 whole entry): as the sequence (P50750 whole entry) above
Protein cereblon/Cyclin-dependent kinase 9, sequence (Q96SW2 whole entry): as the sequence (Q96SW2 whole entry) above
Cyclin-dependent kinase 5, sequence (Q00535 whole entry): as the sequence (Q00535 whole entry) above

| Compound | IC50 [1] [µM] | IC50 [2] [µM] | IC50 [3] [µM] | Kd [4] [µM] | Kd [5] [µM] |
| --- | --- | --- | --- | --- | --- |
| O=C(CCCOc1ccc(CC(=O)Nc2cc(C3CCC3)[nH]n2)cc1)NCCCCNc1cccc2c1C(=O)N(C1CCC(=O)NC1=O)C2=O (configuration not stated) | 0.007 | 0.155 | 0.53 |  |  |
| O=C1CCC(N2C(=O)c3cccc(OCCCCCOc4ccc(CC(=O)Nc5cc(C6CCC6)n[nH]5)cc4)c3C2=O)C(=O)N1 (configuration not stated) | 0.032 |  | 1.08 | 0.23 | 1.06 |
